We go through 9 compounds from US20260049089A1, “KRAS INHIBITOR COMPOUND” (SHANGHAI APEIRON THERAPEUTICS COMPANY LIMITED, priority 2022, published 2026).

SMILES strings stand for the structures. Read-outs that look alike come from different tables or passages of the source. Some results are limits rather than exact numbers.

Holding throughout (assay type): cell-based
One assay concerns pERK in AGS cells. As to the kind of experiment: ERK phosphorylation cell assay, AGS. Conditions: 3 hours compound incubation, read-out: pERK AGS_IC50. A digest of the protocol:
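AGS […] cells, seeded overnight, were treated with compound for 3 hours at 37° C. pERK was detected by in-cell immunofluorescence, with GAPDH as normalizer, using 800CW/680RD secondary antibodies. Mean relative p-ERK levels were fitted against log concentration, with DMSO as negative and 10 μM Reference as positive control.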

A further assay deals with AGS cells. As to the kind of experiment: 3D cell proliferation assay (CellTiter-Glo 3D), AGS. To be noted: 5 days, read-out: 3D Proliferation Inhibition AGS_IC50. How it is done: (§1) Using a nanoliter liquid handling system (LABCYTE, P-0200), the diluted test compounds were added to a 384-well low-adsorption cell culture plate. Cells were seeded into the wells, and the plate was placed in an incubator at 37° C. with 5% CO2. After co-incubating the compounds and cells for 5 days, CellTiter-Glo® 3D reagent was added. Luminescence values were measured using an EnVision Multilabel Plate Reader (luminescence is proportional to the ATP content in the system, and ATP content directly reflects the number of viable cells). Finally, the IC50 values (half-maximal inhibitory concentrations) of the compounds were determined using non-linear fitting equations in XLFit software with the following parameters: […]
(§2) X: Logarithm of compound concentration • Y: Inhibition rate (%)
(§3) [formula] • Negative control: DMSO • Positive control: Medium only

The subject of the next assay is pERK in AsPC-1 cells. In words: ERK phosphorylation cell assay, AsPC-1. Conditions: read-out: pERK AsPC-1_IC50.
The test system of another assay is AsPC-1 cells. As to the kind of experiment: 3D cell proliferation assay (CellTiter-Glo 3D), AsPC-1. To be noted: 5 days, read-out: 3D Proliferation Inhibition AsPC-1_IC50. Here is the method: as §1, §2, §3
On the technique in general: ATP-based viability assays read luminescence as a measure of living cells.

Where [1] appears, read: Homo sapiens, ASPC1, AsPC-1 cells.

For `C=C1CN2CCCC2(COc2nc(N3CCC[C@@](C)(O)C3)c3cc4c(c(F)c3n2)-c2cc(N)cc3ccc(F)c(c23)CCCCCN4)C1` (stereo partly drawn) [Example 40, (3R)-1-(17-amino-3,15-difluoro-13-((2-methylenetetrahydro-1H-pyrazin-7a(5H)-yl)methoxy)-4,5,6,7,8,9-hexahydronaphtho[1′,8′:4,5,6][1]azacycloundecano[2,3-g]quinazolin-11-yl)-3-methylpiperidin-3-ol], the IC50 with pERK in AGS cells (Homo sapiens, AGS, 3 h) is 9.11 µM; in the assay with AGS cells (Homo sapiens, AGS, 120 h), 2.05 µM; in the assay on pERK in AsPC-1 cells (setting [1]), greater than 10 µM; with AsPC-1 cells (Homo sapiens, ASPC1, 120 h) it was 2.17 µM.

As for `C=C1CN2CCC[C@@]2(COc2nc(N3CCC[C@@](C)(O)C3)c3cc4c(c(F)c3n2)-c2cc(O)cc3ccc(F)c(c23)CCOCCN4)C1` (single isomer, unassigned) [Example 42A], the IC50 in the assay with pERK in AGS cells came to 0.026 µM; in the assay with AGS cells, 0.125 µM; in the assay with pERK in AsPC-1 cells (AsPC-1 cells), 0.134 µM; in the assay on AsPC-1 cells it was 0.456 µM.

For the compound `C[C@H](Oc1nc(N2CCC[C@@](C)(O)C2)c2cc3c(c(F)c2n1)-c1cc(O)cc2ccc(F)c(c12)CCCCCN3)[C@@H]1CCCN1C` [Example 35, 3,15-Difluoro-11-((R)-3-hydroxy-3-methylpiperidin-1-yl)-13-((S)-1-((S)-1-methylpyrrolidin-2-yl)ethoxy)-4,5,6,7,8,9-hexahydro-naphtho[1′,8′:4,5,6][1]azacycloundecino[2,3-g]quinazoline-17-ol], the IC50 in the assay with pERK in AGS cells (Homo sapiens, AGS, 3 h) is 4.58 µM; with AGS cells (Homo sapiens, AGS, 120 h) it was 2.69 µM; with pERK in AsPC-1 cells (setting [1]), greater than 10 µM; in the assay on AsPC-1 cells (Homo sapiens, ASPC1, 120 h) it was 2.83 µM.

In the case of `C[C@@]1(O)CCCN(c2nc(OCC34CCCN3CC(F)(F)C4)nc3c(F)c4c(cc23)NCCCCCc2c(F)ccc3cc(O)cc-4c23)C1` (stereo partly drawn) [Example 36], the IC50 in the assay with pERK in AGS cells (Homo sapiens, AGS, 3 h) worked out at 1.39 µM; in the assay with AGS cells (Homo sapiens, AGS, 120 h) it was 1.88 µM; in the assay on pERK in AsPC-1 cells (setting [1]), 3.91 µM; with AsPC-1 cells (Homo sapiens, ASPC1, 120 h), 2.48 µM.

Take `CN1CCC[C@H]1COc1nc(N2CCC[C@@](C)(O)C2)c2cc3c(c(F)c2n1)-c1cc(O)cc2ccc(F)c(c12)CCCCCN3` (single isomer, unassigned) [Example 28B]: the IC50 is greater than 10 µM in the assay with pERK in AGS cells, 3.36 µM in the assay on AGS cells, greater than 10 µM in the assay with pERK in AsPC-1 cells (AsPC-1 cells) and 3.55 µM in the assay on AsPC-1 cells.

In the case of `CN(C)C1CN(c2nc(N3CCC[C@@](C)(O)C3)c3cc4c(c(F)c3n2)-c2cc(O)cc3ccc(F)c(c23)CCCCCN4)C1` [Example 39, (R)-13-(3-(dimethylamino)azetidinyl)-3,15-difluoro-11-(3-hydroxy-3-methylpiperidin-1-yl)-4,5,6,7,8,9-hexahydro-naphtho[1′,8′:4,5,6][1]azacycloundecino[2,3-g]quinazoline-17-ol], the IC50 is greater than 10 µM with pERK in AGS cells (Homo sapiens, AGS, 3 h); 6.39 µM with AGS cells (Homo sapiens, AGS, 120 h); greater than 10 µM in the assay on pERK in AsPC-1 cells (setting [1]); greater than 10 µM in the assay with AsPC-1 cells (Homo sapiens, ASPC1, 120 h).

In the case of `[2H]C([2H])([2H])N1CCOCCc2c(F)ccc3cc(O)cc(c23)-c2c1cc1c(N3CCC[C@@](C)(O)C3)nc(OC[C@@]34CCCN3C[C@H](F)C4)nc1c2F` [Example 46, 3,15-difluoro-13-(((2R,7aS)-2-fluorotetrahydro-1H-pyrazin-7a(5H)-yl)methoxy)-11-((R)-3-hydroxy-3-methylpiperidin-1-yl)-9-(trideuteromethyl)-4,5,8,9-tetrahydro-7H-naphtho[1′,8′:7,8,9][1]oxa[4]azacycloundeca[5,6-g]quinazoline-17-ol], the IC50 with pERK in AGS cells (Homo sapiens, AGS, 3 h) was found to be 0.0058 µM; in the assay on AGS cells (Homo sapiens, AGS, 120 h), 0.012 µM; in the assay with pERK in AsPC-1 cells (setting [1]), 0.011 µM; in the assay with AsPC-1 cells (Homo sapiens, ASPC1, 120 h), 0.03 µM.

As to `CN(C)CC1(COc2nc(N3CCC[C@@](C)(O)C3)c3cc4c(c(F)c3n2)-c2cc(O)cc3ccc(F)c(c23)CCCCCN4)CC1` [Example 27], the IC50 stood at 0.099 µM in the assay on pERK in AGS cells (Homo sapiens, AGS, 3 h); 0.314 µM in the assay on AGS cells (Homo sapiens, AGS, 120 h); 0.338 µM in the assay on pERK in AsPC-1 cells (setting [1]); 1 µM in the assay with AsPC-1 cells (Homo sapiens, ASPC1, 120 h).

On to `C[C@@]1(O)CCCN(c2nc(OC[C@@]34CCCN3C[C@H](F)C4)nc3c(F)c4c(cc23)NCCOCCc2c(F)ccc3cc(O)cc-4c23)C1` [Example 43B], for which the IC50 with pERK in AGS cells (Homo sapiens, AGS, 3 h) stood at 0.061 µM; in the assay with AGS cells (Homo sapiens, AGS, 120 h), 0.148 µM; in the assay with pERK in AsPC-1 cells (setting [1]) it was 0.108 µM; in the assay with AsPC-1 cells (Homo sapiens, ASPC1, 120 h), 0.434 µM.
